# Experimental data taken from US20100063046A1, “TETRACYCLIC IMIDAZOLE ANALOGS” (priority 2006, published 2010).
# Molecular target: T1, nucleolin (Homo sapiens, UniProt P19338)
# T1 construct: without the N-terminal acidic stretches domain
# Assay: Nucleolin/nucleic acid ligand interaction assay (gel retardation)
# Type: binding
# Design: key: A “+” represents the weakest nucleolin affinity; a “++++” represents the strongest nucleolin affinity
# Conditions: relative affinity of each nucleic acid ligand for recombinant nucleolin (MBP fusion, ~250 nM); 32P-labeled ligand; 6% DNA retardation gel
# Experimental: The following assays can be used to assess the effects of compounds on interactions between nucleolin and nucleic acid ligands capable of forming quadruplex (QP) and hairpin (HP) secondary structures. Nucleic acid ligands tested were a cMyc QP DNA having nucleotide sequence 5′-[…]-3′ and a HP pre-rRNA region to which nucleolin binds, having the sequence 5′-[…]-3′. In the assays, recombinant nucleolin (˜250 nM), which has been fused to maltose binding protein, and has the sequence under accession number NM_005381 without the N-terminal acidic stretches domain, is incubated with each of the two ^32P-labeled nucleic acid ligands (10 or 250 nM). Nucleolin and the nucleic acid ligand are incubated in the presence or absence of a test compound 7 in an incubation buffer (12.5 mM Tris, pH 7.6, 60 mM KCl, 1 mM MgCl2, 0.1 mM EDTA, 1 mM DTT, 5% glycerol, 0.1 mg/ml BSA) for 30 minutes at room temperature.
# The resulting complexes are separated on a 6% DNA retardation gel using 0.5×TBE with 20 mM KCl as a running buffer. The assay also can be conducted using nucleic acid ligands derived from human ribosomal DNA, whereby one can identify a compound that selectively modulates formation of a nucleolin/nucleic acid complex that depends on the conformation of the nucleic acid. Sequences of suitable nucleic acids are shown in the preceding example. […] A “+” represents the weakest nucleolin affinity and a “++++” represents the strongest nucleolin affinity. […] Using nucleic acids such as these having known conformational properties, one can identify a compound such as the compounds described herein that selectively interferes with binding of nucleolin to a particular quadruplex structure.
# T1 sequence (P19338 284-710 limits assumed): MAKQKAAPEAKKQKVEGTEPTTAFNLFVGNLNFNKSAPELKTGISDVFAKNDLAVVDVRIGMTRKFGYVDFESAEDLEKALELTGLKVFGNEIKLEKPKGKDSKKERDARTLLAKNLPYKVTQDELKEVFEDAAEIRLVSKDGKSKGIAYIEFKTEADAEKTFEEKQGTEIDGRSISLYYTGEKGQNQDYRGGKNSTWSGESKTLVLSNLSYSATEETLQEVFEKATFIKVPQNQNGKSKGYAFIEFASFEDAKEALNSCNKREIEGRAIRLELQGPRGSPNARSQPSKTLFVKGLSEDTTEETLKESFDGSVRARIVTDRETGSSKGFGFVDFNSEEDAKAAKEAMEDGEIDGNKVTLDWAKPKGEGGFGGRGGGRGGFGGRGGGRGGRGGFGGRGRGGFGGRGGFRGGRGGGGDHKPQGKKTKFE
row,Molecule,Affinity for Nucleolin
1,"11028NT: DNA oligonucleotide from human rDNA non-template strand, GGGGCGCGGCGGGGGGAGAAGGGTCGGGGCGGCAGGGG (DNA, backbone and methylation of C not given here) [Example 11028NT]",+
2,"6183NT: DNA oligonucleotide from human rDNA non-template strand, GGGTCGGGGGCGGTGGTGGGCCCGCGGGGG (DNA, backbone and methylation of C not given here) [Example 6183NT]",+
3,"8749NT: DNA oligonucleotide from human rDNA non-template strand, GGGAGGGCGCGCGGGTCGGGG (chemistry not given here) [Example 8749NT]",+
4,"8511NT: DNA oligonucleotide from human rDNA non-template strand, GGGGGTGGGCGGGCGGGGCCGGGGGTGGG (DNA, backbone and methylation of C not given here) [Example 8511NT]",++++
5,"7733T: DNA oligonucleotide from human rDNA template strand, GGGAGGGGCACGGGCCGGGGGCGGGACGGG (DNA, backbone and methylation of C not given here) [Example 7733T]",+
6,"8762NT: DNA oligonucleotide from human rDNA non-template strand, CGGAGGGCGCGCGGGTCGGGGCGGCGGCGGCGGCGGCGGTGGCGGCGGCGGCGGGGGCGGCGGG (nucleic acid, chemistry not given here) DNA: CGGAGGGCGCGCGGGTCGGGGCGGCGGCGGCGGCGGCGGTGGCGGCGGCGGCGGGGGCGGCGGG",++++
